These results are taken from article PMC8480782, “Efficient Dimerization Disruption of Leishmania infantum Trypanothione Reductase by Triazole-phenyl-thiazoles” (Journal of Medicinal Chemistry, 2021).

In general, EC50 refers to the concentration giving half of the maximal effect. As usually defined, the IC50 is the point on the concentration scale where inhibition reaches its midpoint.

Experiment [1] relates to L. infantum intracellular amastigotes. The experiment can be described thus: Leishmanicidal activity in amastigote-infected THP-1 monocyte-derived macrophages. The experiment is classed as cell-based, Leishmania infantum. Conditions: Leishmania infantum, THP-1, 72 h. How it is done:
(§1) THP-1 monocytes were seeded in a 48-well plate at a concentration of 5 × 10^5 cells/mL (250 μL/well) in RPMI complete medium supplemented with phorbol 12-myristate 13-acetate (PMA) (100 ng/mL). Differentiation of THP-1 monocytes to macrophages was allowed for 24 h at 37 °C and 5% CO2. THP-1-derived macrophages were infected with GFP-expressing axenic amastigotes at 5 × 10^6 parasites/mL in RPMI complete medium for 24 h (250 μL/well). Extracellular amastigotes were washed twice with PBS. The remaining extracellular parasites were challenged for 24 h with THP-1 medium supplemented with 10% horse serum (Gibco) instead of FCS. Cells were washed twice with PBS, and treatments were performed in 250 μL of fresh RPMI medium supplemented with 10% horse serum for 72 h at 37 °C and 5% CO2. Afterward, treatments were removed by two PBS washes. Lysis of infected cells was performed with 120 μL of SDS 0.005% (w/v) in PBS. After a 30 min incubation at 37 °C, lysis was stopped by adding RPMI complete medium with PI at 20 μg/mL (120 μL/well). The lysates were transferred to a 96-well plate (200 μL/well), and the GFP^+ amastigotes extracted from the infected cells were acquired by a Beckman Coulter FC500 flow cytometer. Each sample (100 μL) was acquired for 20 s.
The relative number of GFP^+ intracellular amastigotes per cell in each sample was estimated after the division of the total number of GFP+ amastigotes by the LDH activity value of the sample. Results were normalized to the vehicle-treated controls. EC50 values of intracellular amastigotes were calculated using a nonlinear regression model with GraFit 6 software (Erithacus, Horley, Surrey, U.K.). All of the assays were conducted in at least three independent experiments.

Experiment [2] deals with THP-1 monocyte-derived macrophages. In words: Cytotoxicity in THP-1 monocyte-derived macrophages (LDH activity). In kind it is cell-based, human. The conditions noted are these: Homo sapiens, THP-1; LDH activity. How it is done:
THP-1 cells were grown in RPMI-1640 medium (Gibco, Leiden, The Netherlands) supplemented with 10% heat-inactivated FCS, antibiotics, 10 mM HEPES, 2 mM glutamine, and 1 mM sodium pyruvate, pH 7.2, at 37 °C and 5% CO2.
as §1
Cytotoxicity of THP-1 infected macrophages was determined using an in-house developed lactate dehydrogenase (LDH) activity assay. LDH activity assays from the remaining cell lysates (100 μL/well) were carried out at 37 °C in 250 μL of Tris/HCl buffer (pH 8.9, 50 mM) containing DL-lactate (840 mM), NAD^+ (450 μM), 1-methoxyphenazine methosulfate (45 μM), and nitro blue tetrazolium chloride (40 μM). The color intensity of the generated formazan dye was monitored at 570 nm using an EnSpire Multimode Plate Reader (PerkinElmer, Waltham, MA). CC50 values were calculated using a nonlinear regression model with GraFit 6 software (Erithacus, Horley, Surrey, U.K.).

Experiment [3] has as its target T1, TcoTryR (Trypanosoma congolense, UniProt P13110).
T1 construct: HIS; made in house; host or cells: E. coli
In words: TryR oxidoreductase activity, DTNB-coupled assay (TcoTryR). The experiment is classed as biochemical. The text has this: (§2) The DNA coding sequences for Homo sapiens GR, T. brucei TryR, and T. congolense TryR were polymerase chain reaction (PCR)-amplified and cloned in the pRSETA plasmid. The DNA coding for hGR (transcript variant 1; NCBI Reference Sequence: NM_000637.5) was purchased from GeneScript. Genomic DNA from T. congolense parasites was kindly provided by Dr. Stefan Magez (University of Vrije, Brussels). Genomic DNA from the T. brucei S16 cell line was kindly provided by José M. Pérez-Victoria. Instituto de Parasitología y Biomedicina “López—Neyra” CSIC. HIS-tagged recombinant T. brucei and T. congolense TryRs (TbTryR and TcoTryR, respectively) were purified from E. coli as already explained for LiTryR.
(§3) TryR oxidoreductase activity was determined spectrophotometrically using a modified version of the DTNB-coupled assay described by Hamilton et al.[52] Briefly, reactions were carried out at 26 °C in 250 μL of N-(2-hydroxyethyl)piperazine-N′-ethanesulfonic acid (HEPES) buffer (pH 7.5, 40 mM) containing ethylenediaminetetraacetic acid (EDTA) (1 mM), NADP^+ (30 μM), DTNB (25 μM), TS2 (1 μM), NADPH (150 μM), glycerol (0.02%), DMSO (1.75%), and recombinant TryR (7 nM). […] Reactions were started by addition of a mixture of NADPH and TS2.
(§4) TryR oxidoreductase activity was monitored at 26 °C by an increase in absorbance at 412 nm in an EnSpire Multimode Plate Reader (PerkinElmer, Waltham, MA). […] (TNB) concentration was obtained by multiplying the absorbance values by 100 (50 μM TNB generates 0.5 arbitrary units of absorbance at 412 nm). In this DTNB-coupled assay, one molecule of T(SH)2 reduces one molecule of DTNB, producing two TNB molecules. All of the assays were conducted in at least three independent experiments. Data were analyzed using a nonlinear regression model with GraFit 6 software (Erithacus, Horley, Surrey, U.K.).

The test system of experiment [4] is L. infantum axenic amastigotes. The experiment can be described thus: Leishmanicidal activity on axenic amastigotes (PI exclusion, flow cytometry). In kind it is cell-based, Leishmania infantum. Conditions: for EC50: Leishmania infantum, axenic amastigotes, 24 h at 37 °C, read-out: EC50 amastigotes. How it is done: (§5) L. infantum promastigotes (MCAN/ES/89/IPZ229/1/89) were grown in Roswell Park Memorial Institute (RPMI)-1640 medium (Sigma-Aldrich, St. Louis, MO) supplemented with 10% heat-inactivated fetal calf serum (FCS), antibiotics, and 25 mM HEPES (pH 7.2) at 26 °C. L. infantum axenic amastigotes (MCAN/ES/89/IPZ229/1/89) were grown in M199 medium (Invitrogen, Leiden, The Netherlands) supplemented with 10% heat-inactivated FCS, 1 g/L β-alanine, 100 mg/L L-asparagine, 200 mg/L sucrose, 50 mg/L sodium pyruvate, 320 mg/L malic acid, 40 mg/L fumaric acid, 70 mg/L succinic acid, 200 mg/L α-ketoglutaric acid, 300 mg/L citric acid, 1.1 g/L sodium bicarbonate, 5 g/L morpholineethanesulfonic acid (MES), 0.4 mg/L hemin, and 10 mg/L gentamicine, pH 5.4, at 37 °C.
Axenization was performed by diluting 0.5 mL of a 7-day stationary phase culture of L. infantum promastigotes (2–3 × 10^7 parasites/mL) in 4.5 mL of amastigotes medium and incubating the culture at 37 °C for 2 or 3 days. L. infantum axenic amastigotes apparition was followed by phase-contrast microscopy using an Eclipse Ti inverted microscope (Nikon, Tokyo, Japan).
(§6) Drug treatment of L. infantum promastigotes was performed during the logarithmic growth phase at a concentration of 2 × 10^6 parasites/mL at 26 °C for 24 h. […] EC50 was evaluated by flow cytometry by the propidium iodide (PI) exclusion method. After selection of the parasite population based on their forward scatter (FSC) and side scatter (SSC) values, live and dead parasite cells were identified by their permeability to PI. All of the assays were conducted in triplicate in at least three independent experiments. Data were analyzed using a nonlinear regression model with GraFit 6 software (Erithacus, Horley, Surrey, U.K.).
(In general: In flow cytometry, cells or beads pass a laser one at a time.)

The subject of experiment [5] is L. infantum promastigotes. In words: Leishmanicidal activity on promastigotes (PI exclusion, flow cytometry). The experiment is classed as cell-based, Leishmania infantum. The conditions noted are these: for EC50: Leishmania infantum, 24 h at 26 °C, read-out: EC50 promastigotes. How it is done:
as §5, §6

Experiment [6] concerns HepG2 cells. In words: Cellular toxicity, crystal violet assay. The experiment is classed as cell-based. The conditions noted are these: Homo sapiens, HepG2; 24 h, crystal violet method; read-out: EC50 HepG2. As to the method: Liver hepatocellular carcinoma HepG2 cells were grown in Dulbecco’s modified Eagle’s medium (DMEM) (Sigma-Aldrich, St. Louis, MO) with 10% heat-inactivated FCS, antibiotics, and 10 mM HEPES.
Drug treatment of liver hepatocellular carcinoma HepG2 cells was performed at a concentration of 10^5 cells/mL at 37 °C and 5% CO2 for 24 h. EC50 was evaluated by the crystal violet assay. Briefly, cells were washed with phosphate-buffered saline (PBS) and stained with 200 μL of crystal violet solution (0.2% crystal violet, 2% ethanol) for 10 min at room temperature. Next, the plates were washed twice with tap water and allowed to dry. The stained cells were solubilized with 400 μL of 1% sodium dodecyl sulfate (SDS), and the color intensity was quantified at 570 nm using an EnSpire Multimode Plate Reader (PerkinElmer, Waltham, MA). All of the assays were conducted in triplicate in at least three independent experiments. Data were analyzed using a nonlinear regression model with GraFit 6 software (Erithacus, Horley, Surrey, U.K.).

Experiment [7] has as its target T2, TbTryR (Trypanosoma brucei brucei, UniProt P39051).
T2 construct: HIS; made in house; host or cells: E. coli
In words: TryR oxidoreductase activity, DTNB-coupled assay (TbTryR). The experiment is classed as biochemical. Conditions: read-out: IC50, oxidoreductase activity of TbTryR.
From the text: as §2, §3, §4

Where [8] appears, read: amastigote-infected THP-1 macrophages, 72 h, read-out: EC50 intracellular amastigotes.

Read-outs that look alike come from different tables or passages of the source.

T1 sequence (P13110 whole entry): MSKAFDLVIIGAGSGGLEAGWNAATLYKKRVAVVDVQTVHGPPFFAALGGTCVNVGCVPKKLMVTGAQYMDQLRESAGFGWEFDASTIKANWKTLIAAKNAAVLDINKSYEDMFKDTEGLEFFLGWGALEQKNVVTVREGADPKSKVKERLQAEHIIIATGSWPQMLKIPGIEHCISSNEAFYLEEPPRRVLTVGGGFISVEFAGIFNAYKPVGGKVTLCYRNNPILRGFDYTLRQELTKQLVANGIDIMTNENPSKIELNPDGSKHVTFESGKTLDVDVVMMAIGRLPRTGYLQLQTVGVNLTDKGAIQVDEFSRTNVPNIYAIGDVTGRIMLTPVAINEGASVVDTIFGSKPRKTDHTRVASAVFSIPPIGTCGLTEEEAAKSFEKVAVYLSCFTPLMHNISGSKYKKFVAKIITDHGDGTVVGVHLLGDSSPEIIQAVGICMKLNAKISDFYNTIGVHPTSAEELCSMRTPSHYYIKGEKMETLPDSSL
T2 sequence (P39051 whole entry): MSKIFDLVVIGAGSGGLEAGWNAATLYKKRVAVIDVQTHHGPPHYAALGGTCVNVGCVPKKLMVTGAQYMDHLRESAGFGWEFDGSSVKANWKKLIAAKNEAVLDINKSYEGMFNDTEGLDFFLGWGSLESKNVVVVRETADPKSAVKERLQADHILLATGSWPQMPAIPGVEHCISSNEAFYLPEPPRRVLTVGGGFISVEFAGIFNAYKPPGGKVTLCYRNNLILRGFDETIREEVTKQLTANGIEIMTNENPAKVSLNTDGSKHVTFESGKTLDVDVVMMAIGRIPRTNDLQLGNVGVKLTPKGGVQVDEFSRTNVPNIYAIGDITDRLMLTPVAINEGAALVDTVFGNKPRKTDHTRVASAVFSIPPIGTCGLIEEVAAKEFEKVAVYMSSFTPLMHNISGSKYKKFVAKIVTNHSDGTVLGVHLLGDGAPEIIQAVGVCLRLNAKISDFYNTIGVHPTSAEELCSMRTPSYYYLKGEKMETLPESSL

On to `C[C@@H]1[C@H](O)[C@@H](C)/C=C/C=C/C=C/C=C/C=C/C=C/C=C/[C@H](O[C@@H]2O[C@H](C)[C@@H](O)[C@H](N)[C@@H]2O)C[C@@H]2O[C@](O)(C[C@@H](O)C[C@@H](O)[C@H](O)CC[C@@H](O)C[C@@H](O)CC(=O)O[C@H]1C)C[C@H](O)[C@H]2C(=O)O` [amphotericin B, reference compound], for which the EC50 was 0.07 ± 0.01 µM in experiment [1] (setting [8]) and over 5 µM in experiment [2].

Consider `NCCCCc1cn(-c2ccc(-c3nc(CCc4ccccc4)cs3)c(OCCN3CCNC3=O)c2)nn1` [12a, 1-(2-(5-(4-(4-Ammoniumbutyl)-1H-1,2,3-triazol-1-yl)-2-(4-phenethylthiazol-2-yl)phenoxy)ethyl)imidazolidin-2-one 2,2,2-Trifluoroacetate], for which the IC50 in experiment [3] is 11 ± 1.3 µM; in experiment [7] it was 13.3 ± 1.9 µM. For the same compound, the 50% effective concentration (EC50) in experiment [1] (read-out: EC50 intracellular amastigotes, amastigote-infected THP-1 macrophages, 72 h) was found to be 32.4 ± 6.7 µM; in experiment [4], 13.9 ± 0.6 µM; in experiment [5], 16.4 ± 0.9 µM; in experiment [2], 45 ± 3.1 µM; in experiment [6], 20.3 ± 2.4 µM.

On to `CCCCCCCCCCCCCCCCOP(=O)([O-])OCC[N+](C)(C)C` [miltefosine, reference compound], for which the EC50 in experiment [1] (setting [8]) is 0.6 ± 0.1 µM; in experiment [4] it was 2 ± 0.1 µM; in experiment [5], 47.6 ± 0.6 µM; in experiment [2], over 25 µM; in experiment [6] it was over 75 µM. The “SIa (ratio of EC50 against human cells to EC50 against amastigotes)” value in experiment [4] (HepG2 / axenic amastigotes) is over 37.5. Moreover, the “SIp (ratio of EC50 against human cells to EC50 against promastigotes)” value in experiment [5] (HepG2 / promastigotes) is over 1.6.
